Assays:
hA2a = hA2a (Homo sapiens (Human), UniProt P29274); test: cAMP inhibition assay in hA2a/CHO cells; format: cell-based; conditions: adenosine stimulation, read-out: cAMP & FLIPR IC50 (nM) hA2a
Method: hA2a/CHO, hA2b/CHO and mA2a/CHO (Genscript) were plated at 5×10^3 cells/well into 384-well polystyrene plates at the day of experiment. Compounds were pre-incubated with cells for 30 min at 37° C., 5% CO2. Then […] adenosine was added to the cells and incubated for 30 min at 37° C., 5% CO2. Detection reagent (CISBIO) was added and the plates were incubated for 60 min at room temperature. The signal was captured by Envision.
FLIPR™ and cAMP inhibition activities of exemplary compounds in different adenosine receptor over-expressing cell lines are shown in Table 4 below.

hA1 = hA1 (Homo sapiens (Human), UniProt P30542); test: FLIPR inhibition assay in hADORA1/CHO (hA1 expressing) cells; format: cell-based; conditions: hADORA1/CHO cells, FLIPR calcium, adenosine stimulation; read-out: cAMP & FLIPR IC50 (nM) hA1
Chain of hA1 (P30542 whole entry): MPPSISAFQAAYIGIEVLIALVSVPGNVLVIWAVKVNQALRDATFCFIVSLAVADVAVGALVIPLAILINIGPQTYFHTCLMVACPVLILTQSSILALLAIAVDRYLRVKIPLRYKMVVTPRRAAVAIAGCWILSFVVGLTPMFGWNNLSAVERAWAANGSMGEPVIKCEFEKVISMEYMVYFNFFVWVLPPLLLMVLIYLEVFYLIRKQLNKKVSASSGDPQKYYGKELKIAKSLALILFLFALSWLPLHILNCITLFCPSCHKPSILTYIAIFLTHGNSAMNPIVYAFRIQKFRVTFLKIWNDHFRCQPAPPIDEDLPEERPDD
Method: hADORA1/CHO (hA1 expressing) cells (Genscript) were plated at 1×10^4 cells/well into 384-well polystyrene plates one day before starting the experiment. On the day of experiment, the supernatant was discard and replaced with 40 µL of dye (FLIPR calcium 5 Assay Kit) per well and the plates were incubated for 60 mins at 37° C. plus 5% CO2. Then testing compounds were added at different concentrations for FLIPR™ inhibition assay. After a 400 s incubation with compound, […] adenosine was added into the cells, and the signal was captured by FLIPR.

Chain of hA2a (P29274 whole entry): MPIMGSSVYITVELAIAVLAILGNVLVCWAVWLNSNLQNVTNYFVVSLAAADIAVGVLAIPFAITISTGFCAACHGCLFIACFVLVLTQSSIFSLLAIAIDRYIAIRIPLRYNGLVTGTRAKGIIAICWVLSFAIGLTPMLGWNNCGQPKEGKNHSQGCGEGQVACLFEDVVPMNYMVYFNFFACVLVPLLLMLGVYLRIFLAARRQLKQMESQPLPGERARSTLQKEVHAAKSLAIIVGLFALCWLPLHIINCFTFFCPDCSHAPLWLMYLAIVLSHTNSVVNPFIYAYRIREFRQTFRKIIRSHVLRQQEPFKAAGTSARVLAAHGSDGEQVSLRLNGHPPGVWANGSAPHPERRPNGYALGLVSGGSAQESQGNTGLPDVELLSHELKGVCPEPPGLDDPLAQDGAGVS

SMILES | IC50 (hA2a) | IC50 (hA1)
COC1CN(c2nc(N)n3nc(Cc4c(F)cccc4F)nc3c2-c2ccc3ncc(C)n3c2)C1 [Example 109, 2-(2,6-difluorobenzyl)-7-(3-methoxyazetidin-l-yl)-8-(3-methylimidazo[l,2-a]pyridin-6-yl)-[l,2,4] triazolo[1,5-c]pyrimidin-5-amine] | 3.5 nM | 30.6 nM
Cc1cnc2ccc(-c3c(-c4ncco4)nc(N)n4nc(CC5CCCO5)nc34)cn12 (single isomer, unassigned) [Example 106-1, 8-(3-methylimidazo[1,2-a]pyridin-6-yl)-7-(oxazol-2-yl)-2-((tetrahydrofuran-2-yl)methyl)-[1,2,4]triazolo[1,5-f]pyrimidin-5-amine] | 0.5 nM | 53.2 nM
COCCc1nc2c(-c3ccc4ncc(C)n4c3)c(-c3ncco3)nc(N)n2n1 [Example 126, 2-(2-methoxyethyl)-8-(3-methylimidazo[l,2-a]pyridin-6-yl)-7-(oxazol-2-yl)-[1,2,4]triazolo[1,5-c]pyrimidin-5-amine] | 1.1 nM | 83.6 nM
Cc1cnc2ccc(-c3c(-c4ccc(F)cc4)nc(N)n4nc(C[C@H]5CCCN5C)nc34)cn12 [Example 125, (R)-7-(4-fluorophenyl)-8-(3-methylimidazo[l,2-a]pyrdin-6-yl)-2-((1-methylpyrrolidin-2-yl)methyl)-[l,2,4]triazolo[l,5-c]pyrimidin-5-amine] | 0.4 nM | 34.1 nM
Cc1cnc2ccc(-c3c(N4CCOC(C)C4)nc(N)n4nc(Cc5ncccc5F)nc34)cn12 (single isomer, unassigned; isomer 2) [Example 112-2, 2-((3-fluoropyridin-2-yl)methyl)-8-(3-methylimidazo[l,2-a]pyridin-6-yl)-7-(2-methylmorpholino)-[1,2,4]triazolo[1,5-c]pyrimidin-5-amine (isomer 2)] | 3.2 nM | 120 nM
Cc1cnc2ccc(-c3c(-c4ncco4)nc(N)n4nc(CC5CCCO5)nc34)cn12 (single isomer, unassigned) [Example 106-2, 8-(3-methylimidazo[1,2-a]pyridin-6-yl)-7-(oxazol-2-yl)-2-((tetrahydrofuran-2-yl)methyl)-[1,2,4]triazolo[1,5-f]pyrimidin-5-amine] | 0.2 nM | 34.9 nM
Cc1cnc2ccc(-c3c(N4CCN(C)CC4)nc(N)n4nc(Cc5c(F)cccc5F)nc34)cn12 [Example 108, 2-(2,6-difluorobenzyl)-8-(3-methylimidazo[1,2-a]pyridin-6-yl)-7-{4-methylpiperazin-l-yl)-[1,2,4] triazolo[1,5-c]pyrimidin-5-amine] | 42.3 nM | 131 nM
Cc1cnc2ccc(-c3c(N4CCOCC4C)nc(N)n4nc(Cc5ncccc5F)nc34)cn12 (single isomer, unassigned; isomer 2) [Example 113-2, 2-((3-fluoropyridin-2-yl)methyl)-8-(3-methylimidazo[1,2-a]pyridin-6-yl)-7-(3-methylmorpholino)-[1,2,4]triazolo[1,5-c]pyrimidin-5-amine (isomer 2)] | 73 nM | > 10000 nM
Cc1cnc2ccc(-c3c(N4CCOC[C@@H]4C)nc(N)n4nc(Cc5ncccc5F)nc34)cn12 (single isomer, unassigned; isomer 1) [Example 113-1, 2-((3-fluoropyridin-2-yl)methyl)-8-(3-methylimidazo[l,2-a]pyridin-6-yl)-7-(3-methylmorpholino)-[1,2,4]triazolo[1,5-c]pyrimidin-5-amine (isomer 1)] | 42.4 nM | 3270 nM
Cc1cnc2ccc(-c3c(N4CC5(COC5)C4)nc(N)n4nc(Cc5ncccc5F)nc34)cn12 [Example 118, 2-((3-fluoropyridin-2-yl)methyl)-8-(3-methylimidazo[l,2-a]pyridin-6-yl)-7-(2-oxa-6-azaspiro[3.3)heptan-6-yl)-[l,2,4]triazolo[l,5-c]pyrimidin-5-a mine] | 228 nM | > 8090 nM

Source: patent publication US10858365B2, “Triazolo-pyrimidine compounds and uses thereof” (Dizal (Jiangsu) Pharmaceutical Co., Ltd., priority 2018, dated 2020)
